Assay results from ChEMBL document CHEMBL5291721, “A preclinical secondary pharmacology resource illuminates target-adverse drug reaction associations of marketed drugs” (Nat Commun, 2023).

Experiments:
[1] = biological target: T1, 5-hydroxytryptamine receptor 2B (Homo sapiens, UniProt P41595); assay type: functional, cell-based
Estrogen receptor = biological target: T2, Estrogen receptor (Homo sapiens, UniProt P03372)
T2 sequence (P03372 whole entry): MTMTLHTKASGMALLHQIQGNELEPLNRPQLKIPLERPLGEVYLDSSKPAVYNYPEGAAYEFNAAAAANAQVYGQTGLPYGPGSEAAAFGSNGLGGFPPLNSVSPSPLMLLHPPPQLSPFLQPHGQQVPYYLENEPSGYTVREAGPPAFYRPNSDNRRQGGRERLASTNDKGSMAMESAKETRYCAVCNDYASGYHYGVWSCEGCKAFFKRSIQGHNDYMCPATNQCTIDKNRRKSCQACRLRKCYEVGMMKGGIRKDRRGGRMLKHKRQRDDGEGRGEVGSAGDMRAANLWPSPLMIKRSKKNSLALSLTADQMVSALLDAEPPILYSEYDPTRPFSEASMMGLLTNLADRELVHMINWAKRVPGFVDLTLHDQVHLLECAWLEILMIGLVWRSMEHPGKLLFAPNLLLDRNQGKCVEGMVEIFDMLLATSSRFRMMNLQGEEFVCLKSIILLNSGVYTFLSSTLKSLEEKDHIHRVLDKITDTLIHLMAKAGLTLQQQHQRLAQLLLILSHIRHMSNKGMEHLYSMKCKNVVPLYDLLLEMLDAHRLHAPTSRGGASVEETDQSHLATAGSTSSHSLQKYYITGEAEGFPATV

[2] = biological target: T3, 5-hydroxytryptamine receptor 1A (Homo sapiens, UniProt P08908); assay type: functional, cell-based
T3 sequence (P08908 whole entry): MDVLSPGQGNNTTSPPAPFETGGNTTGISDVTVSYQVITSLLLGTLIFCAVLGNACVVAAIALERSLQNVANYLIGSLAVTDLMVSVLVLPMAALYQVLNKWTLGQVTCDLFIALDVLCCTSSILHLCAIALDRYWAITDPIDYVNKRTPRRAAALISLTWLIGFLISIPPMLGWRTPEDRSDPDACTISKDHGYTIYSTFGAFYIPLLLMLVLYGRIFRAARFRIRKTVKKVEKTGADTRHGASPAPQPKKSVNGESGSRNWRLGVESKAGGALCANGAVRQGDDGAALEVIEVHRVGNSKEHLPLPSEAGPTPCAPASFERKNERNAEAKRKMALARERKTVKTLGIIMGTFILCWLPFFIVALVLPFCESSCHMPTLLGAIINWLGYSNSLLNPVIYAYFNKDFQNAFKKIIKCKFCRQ

Histamine H1 receptor = Histamine H1 receptor (Homo sapiens, UniProt P35367)
[3] = biological target: 3',5'-cyclic-AMP phosphodiesterase 4D (Homo sapiens, UniProt Q08499); assay type: functional
[4] = biological target: Gamma-aminobutyric acid receptor subunit alpha-1 (Rattus norvegicus, UniProt P62813); assay type: functional
B2 bradykinin receptor = biological target: T4, B2 bradykinin receptor (Homo sapiens, UniProt P30411)
T4 sequence (P30411 whole entry): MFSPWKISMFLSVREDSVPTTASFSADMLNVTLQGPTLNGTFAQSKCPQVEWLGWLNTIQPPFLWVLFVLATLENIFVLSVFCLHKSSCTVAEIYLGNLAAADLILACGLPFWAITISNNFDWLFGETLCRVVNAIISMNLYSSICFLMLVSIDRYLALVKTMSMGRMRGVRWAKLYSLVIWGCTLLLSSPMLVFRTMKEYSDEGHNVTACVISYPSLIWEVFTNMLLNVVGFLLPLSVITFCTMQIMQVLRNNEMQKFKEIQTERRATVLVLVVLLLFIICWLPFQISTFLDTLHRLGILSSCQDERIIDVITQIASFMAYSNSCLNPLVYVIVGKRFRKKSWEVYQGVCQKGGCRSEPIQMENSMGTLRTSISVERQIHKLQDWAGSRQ

[5] = biological target: T1, 5-hydroxytryptamine receptor 2B; assay type: functional, cell-based; remark: listed apart in the source
[6] = biological target: T5, Alpha-2A adrenergic receptor (Homo sapiens, UniProt P08913); assay type: functional, cell-based
T5 sequence (P08913 whole entry): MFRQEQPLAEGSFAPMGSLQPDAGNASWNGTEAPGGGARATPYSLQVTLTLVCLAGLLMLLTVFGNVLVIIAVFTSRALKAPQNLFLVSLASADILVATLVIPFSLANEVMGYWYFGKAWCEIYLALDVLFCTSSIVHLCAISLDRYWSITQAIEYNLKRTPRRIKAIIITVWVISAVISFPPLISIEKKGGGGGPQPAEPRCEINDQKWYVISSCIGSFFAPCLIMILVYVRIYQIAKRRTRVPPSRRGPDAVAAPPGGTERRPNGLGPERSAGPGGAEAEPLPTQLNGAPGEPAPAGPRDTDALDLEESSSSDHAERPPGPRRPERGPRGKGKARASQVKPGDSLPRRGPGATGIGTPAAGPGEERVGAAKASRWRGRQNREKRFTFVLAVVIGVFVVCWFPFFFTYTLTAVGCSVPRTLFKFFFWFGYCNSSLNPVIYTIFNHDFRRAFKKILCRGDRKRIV

Vasopressin V1a receptor = Vasopressin V1a receptor (Homo sapiens, UniProt P37288)
[7] = biological target: T6, Muscarinic acetylcholine receptor M2 (Homo sapiens, UniProt P08172); assay type: functional, cell-based
T6 sequence (P08172 whole entry): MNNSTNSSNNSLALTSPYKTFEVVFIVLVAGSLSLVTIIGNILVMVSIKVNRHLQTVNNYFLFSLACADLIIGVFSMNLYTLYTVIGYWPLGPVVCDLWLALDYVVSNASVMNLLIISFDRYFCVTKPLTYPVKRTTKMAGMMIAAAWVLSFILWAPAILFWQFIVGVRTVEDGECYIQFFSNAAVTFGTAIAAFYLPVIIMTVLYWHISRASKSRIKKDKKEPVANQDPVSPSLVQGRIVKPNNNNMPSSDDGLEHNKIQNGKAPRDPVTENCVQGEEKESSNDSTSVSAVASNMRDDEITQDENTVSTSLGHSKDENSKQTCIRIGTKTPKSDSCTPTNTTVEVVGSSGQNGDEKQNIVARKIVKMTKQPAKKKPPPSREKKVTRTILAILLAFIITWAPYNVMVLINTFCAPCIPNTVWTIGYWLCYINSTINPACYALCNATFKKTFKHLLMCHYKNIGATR

Cannabinoid receptor 1 = Cannabinoid receptor 1 (Homo sapiens, UniProt P21554); assay type: functional, cell-based
[8] = biological target: Beta-1 adrenergic receptor (Homo sapiens, UniProt P08588); assay type: functional
[9] = biological target: Voltage-dependent L-type calcium channel subunit alpha-1C (Rattus norvegicus, UniProt P22002); assay type: functional
Note: assay procedure not described here.

Chain of Beta-1 adrenergic receptor (P08588 whole entry): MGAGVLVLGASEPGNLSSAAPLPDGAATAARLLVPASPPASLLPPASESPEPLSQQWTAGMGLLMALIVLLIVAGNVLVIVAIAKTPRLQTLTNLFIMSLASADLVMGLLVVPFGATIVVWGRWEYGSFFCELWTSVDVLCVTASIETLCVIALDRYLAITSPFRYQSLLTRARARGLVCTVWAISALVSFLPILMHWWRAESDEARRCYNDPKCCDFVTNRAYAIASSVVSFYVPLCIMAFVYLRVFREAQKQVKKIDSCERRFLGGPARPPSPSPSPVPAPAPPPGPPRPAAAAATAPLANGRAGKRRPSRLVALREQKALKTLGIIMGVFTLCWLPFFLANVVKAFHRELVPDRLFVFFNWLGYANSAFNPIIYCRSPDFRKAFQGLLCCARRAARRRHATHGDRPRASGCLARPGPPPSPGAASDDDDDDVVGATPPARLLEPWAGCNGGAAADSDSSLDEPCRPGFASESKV
T1 sequence (P41595 whole entry): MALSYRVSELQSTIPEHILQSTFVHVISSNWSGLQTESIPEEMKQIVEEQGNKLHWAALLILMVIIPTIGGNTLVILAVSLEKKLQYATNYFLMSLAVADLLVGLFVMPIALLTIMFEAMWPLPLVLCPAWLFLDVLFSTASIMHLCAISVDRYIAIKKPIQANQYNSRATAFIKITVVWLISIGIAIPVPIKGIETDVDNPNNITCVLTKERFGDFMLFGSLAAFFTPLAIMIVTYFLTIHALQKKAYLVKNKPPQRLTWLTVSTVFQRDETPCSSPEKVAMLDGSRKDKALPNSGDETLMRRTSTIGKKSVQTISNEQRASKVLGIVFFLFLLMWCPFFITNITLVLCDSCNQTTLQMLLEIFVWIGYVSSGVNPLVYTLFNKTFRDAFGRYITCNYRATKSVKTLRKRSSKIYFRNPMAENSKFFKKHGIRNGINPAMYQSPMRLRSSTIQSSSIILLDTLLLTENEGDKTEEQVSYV
Chain of Gamma-aminobutyric acid receptor subunit alpha-1 (P62813 whole entry): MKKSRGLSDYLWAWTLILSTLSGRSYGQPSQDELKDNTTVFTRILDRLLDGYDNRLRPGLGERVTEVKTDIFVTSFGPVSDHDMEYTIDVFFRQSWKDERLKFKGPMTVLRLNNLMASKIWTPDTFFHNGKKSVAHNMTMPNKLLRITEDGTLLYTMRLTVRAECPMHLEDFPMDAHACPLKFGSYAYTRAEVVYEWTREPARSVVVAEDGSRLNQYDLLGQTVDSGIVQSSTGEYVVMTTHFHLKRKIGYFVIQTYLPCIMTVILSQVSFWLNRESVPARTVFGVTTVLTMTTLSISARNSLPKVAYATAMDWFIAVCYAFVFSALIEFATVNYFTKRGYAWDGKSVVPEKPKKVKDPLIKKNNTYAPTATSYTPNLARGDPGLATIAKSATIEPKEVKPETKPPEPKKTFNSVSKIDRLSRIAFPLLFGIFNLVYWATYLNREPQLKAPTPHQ
Chain of Vasopressin V1a receptor (P37288 whole entry): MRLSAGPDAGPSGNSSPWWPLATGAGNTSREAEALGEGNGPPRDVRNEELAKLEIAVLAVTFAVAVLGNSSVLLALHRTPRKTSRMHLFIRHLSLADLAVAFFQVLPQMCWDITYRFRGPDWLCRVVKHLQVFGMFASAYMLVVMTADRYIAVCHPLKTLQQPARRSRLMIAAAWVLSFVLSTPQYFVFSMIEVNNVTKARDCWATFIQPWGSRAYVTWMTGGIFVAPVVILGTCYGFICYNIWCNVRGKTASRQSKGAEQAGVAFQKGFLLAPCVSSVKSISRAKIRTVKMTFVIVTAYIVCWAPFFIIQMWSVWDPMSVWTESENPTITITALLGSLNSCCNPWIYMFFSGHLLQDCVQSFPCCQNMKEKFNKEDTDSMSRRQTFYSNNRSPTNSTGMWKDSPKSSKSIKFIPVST
Chain of Cannabinoid receptor 1 (P21554 whole entry): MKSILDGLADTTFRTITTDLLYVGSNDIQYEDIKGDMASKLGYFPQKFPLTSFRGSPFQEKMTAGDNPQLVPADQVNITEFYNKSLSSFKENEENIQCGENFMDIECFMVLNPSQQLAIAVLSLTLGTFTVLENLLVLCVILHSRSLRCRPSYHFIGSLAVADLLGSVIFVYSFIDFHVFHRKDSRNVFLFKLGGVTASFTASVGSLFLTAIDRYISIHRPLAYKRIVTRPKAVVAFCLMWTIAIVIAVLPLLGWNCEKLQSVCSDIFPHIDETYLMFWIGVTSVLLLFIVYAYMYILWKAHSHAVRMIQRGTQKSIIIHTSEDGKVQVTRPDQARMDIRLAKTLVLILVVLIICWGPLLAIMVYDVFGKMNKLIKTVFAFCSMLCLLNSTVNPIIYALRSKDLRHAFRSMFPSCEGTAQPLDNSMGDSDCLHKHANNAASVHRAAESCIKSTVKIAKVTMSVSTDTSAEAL
Chain of Histamine H1 receptor (P35367 whole entry): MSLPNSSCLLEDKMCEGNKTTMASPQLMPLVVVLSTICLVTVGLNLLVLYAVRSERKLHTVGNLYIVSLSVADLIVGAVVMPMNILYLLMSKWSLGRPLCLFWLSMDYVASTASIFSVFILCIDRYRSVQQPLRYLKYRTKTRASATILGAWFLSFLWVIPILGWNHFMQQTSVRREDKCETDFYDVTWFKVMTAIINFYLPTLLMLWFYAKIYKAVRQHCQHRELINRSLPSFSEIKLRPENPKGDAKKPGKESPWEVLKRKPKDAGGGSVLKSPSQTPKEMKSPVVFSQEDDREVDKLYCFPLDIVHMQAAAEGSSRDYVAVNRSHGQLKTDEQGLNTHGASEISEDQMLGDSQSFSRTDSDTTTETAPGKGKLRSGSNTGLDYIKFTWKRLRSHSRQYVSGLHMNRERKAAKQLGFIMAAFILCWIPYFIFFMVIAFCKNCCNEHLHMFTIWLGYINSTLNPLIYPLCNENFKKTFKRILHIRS
Chain of 3',5'-cyclic-AMP phosphodiesterase 4D (Q08499 whole entry): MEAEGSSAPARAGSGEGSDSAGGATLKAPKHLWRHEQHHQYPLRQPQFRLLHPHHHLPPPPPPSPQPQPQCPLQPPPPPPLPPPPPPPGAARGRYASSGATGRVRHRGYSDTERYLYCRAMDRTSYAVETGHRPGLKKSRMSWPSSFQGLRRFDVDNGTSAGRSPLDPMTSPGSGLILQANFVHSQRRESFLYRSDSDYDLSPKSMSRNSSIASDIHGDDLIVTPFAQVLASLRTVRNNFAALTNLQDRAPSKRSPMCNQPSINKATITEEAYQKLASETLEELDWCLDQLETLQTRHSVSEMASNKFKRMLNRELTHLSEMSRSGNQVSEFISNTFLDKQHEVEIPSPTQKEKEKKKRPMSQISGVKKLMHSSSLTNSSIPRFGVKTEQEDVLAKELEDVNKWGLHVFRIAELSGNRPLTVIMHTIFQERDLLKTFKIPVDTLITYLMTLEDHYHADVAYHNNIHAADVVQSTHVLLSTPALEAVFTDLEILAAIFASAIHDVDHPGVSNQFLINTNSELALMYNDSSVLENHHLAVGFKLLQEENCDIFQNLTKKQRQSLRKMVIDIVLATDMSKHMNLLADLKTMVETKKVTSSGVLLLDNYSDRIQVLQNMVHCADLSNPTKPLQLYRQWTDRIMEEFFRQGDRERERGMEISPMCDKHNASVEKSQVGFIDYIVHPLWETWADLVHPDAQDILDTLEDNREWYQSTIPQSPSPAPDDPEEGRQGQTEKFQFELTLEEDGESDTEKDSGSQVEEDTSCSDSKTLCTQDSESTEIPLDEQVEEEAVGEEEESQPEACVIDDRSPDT

| SMILES | AC50 [1] [µM] | AC50 (Estrogen receptor) [µM] | AC50 [2] [µM] | AC50 (Histamine H1 receptor) [µM] | AC50 [3] [µM] | AC50 [4] [µM] | AC50 (B2 bradykinin receptor) [µM] | AC50 [5] [µM] | AC50 [6] [µM] | AC50 (Vasopressin V1a receptor) [µM] | AC50 [7] [µM] | AC50 (Cannabinoid receptor 1) [µM] | AC50 [8] [µM] | AC50 [9] [µM] |
| --- | --- | --- | --- | --- | --- | --- | --- | --- | --- | --- | --- | --- | --- | --- |
| O=C(O)c1nn(Cc2ccc(Cl)cc2Cl)c2ccccc12 [LONIDAMINE] | > 30 | > 30 | > 30 | > 30 | > 30 | > 30 | > 30 | > 30 | > 30 | > 30 | > 30 | > 30 | > 30 | – |
| CS(=O)(=O)NC(=O)CCC/C=C\C[C@H]1C(=O)C[C@@H](O)[C@@H]1/C=C/[C@@H](O)COc1ccccc1 [SULPROSTONE] | > 30 | > 30 | > 30 | > 30 | > 30 | > 30 | > 30 | > 30 | > 30 | > 30 | > 30 | > 30 | > 30 | – |
| CCCCCCCC(=O)CC[C@@H]1[C@@H](C/C=C\CCCC(=O)O)[C@@H](O)C[C@H]1O [UNOPROSTONE] | > 30 | > 30 | > 30 | > 30 | > 30 | > 30 | > 30 | > 30 | > 30 | > 30 | > 30 | > 30 | > 30 | – |
| OCC(CO)N[C@H]1C[C@](O)(CO)[C@@H](O)[C@H](O)[C@H]1O [VOGLIBOSE] | > 30 | > 30 | > 30 | > 30 | > 30 | > 30 | > 30 | > 30 | > 30 | > 30 | > 30 | – | > 30 | > 30 |
| CCOC(=O)O[C@]1(C(=O)COC(=O)CC)CC[C@H]2[C@@H]3CCC4=CC(=O)C=C[C@]4(C)[C@H]3[C@@H](O)C[C@@]21C [PREDNICARBATE] | > 10 | > 30 | > 10 | > 10 | > 30 | > 10 | > 10 | > 10 | > 10 | > 10 | > 10 | – | > 10 | > 10 |
| CCN1C(=O)NC(c2ccccc2)C1=O (centres undefined) [ETHOTOIN] | > 30 | > 30 | > 30 | > 30 | > 30 | > 30 | > 30 | > 30 | > 30 | > 30 | > 30 | > 30 | > 30 | – |
| CN(C)CCOC(=O)C(c1ccccc1)C1(O)CCCC1 (centres undefined) [CYCLOPENTOLATE] | > 10 | > 10 | > 10 | > 30 | > 30 | > 10 | > 10 | > 10 | > 10 | > 10 | 0.29 | – | > 10 | > 10 |
| CC1=C(C(=O)O)N2C(=O)[C@@H](NC(=O)[C@H](N)C3=CCC=CC3)[C@H]2SC1 [CEPHRADINE] | > 30 | > 30 | > 30 | > 30 | > 30 | > 30 | > 10 | > 30 | > 30 | > 30 | > 30 | > 30 | > 30 | – |
| CCCCC[C@H](O)CC[C@@H]1[C@H]2Cc3cccc(OCC(=O)O)c3C[C@H]2C[C@H]1O [TREPROSTINIL] | > 30 | > 30 | > 30 | > 30 | > 30 | > 30 | > 30 | > 30 | > 30 | > 30 | > 30 | > 30 | > 30 | – |
| NS(=O)(=O)c1ccc(N2CCCCS2(=O)=O)cc1 | > 30 | > 30 | > 30 | > 30 | > 30 | > 30 | > 30 | > 30 | > 30 | > 30 | > 30 | > 30 | > 30 | – |
| CCC(=O)O[C@H](CC(=O)O)C[N+](C)(C)C [LEVOCARNITINE PROPIONATE] | > 30 | > 30 | > 30 | > 30 | > 30 | > 30 | > 30 | > 30 | > 30 | > 30 | > 30 | > 30 | > 30 | – |
| CCC(=O)[C@@]1(C)[C@H](C)C[C@H]2[C@@H]3CCC4=CC(=O)C=C[C@]4(C)[C@H]3[C@@H](O)C[C@@]21C [RIMEXOLONE] | > 10 | > 30 | > 10 | > 10 | > 30 | > 10 | > 10 | > 10 | > 10 | > 10 | > 10 | – | > 10 | > 10 |
| Nc1nc(Cl)nc2c1ncn2[C@@H]1O[C@H](CO)[C@@H](O)[C@@H]1F [CLOFARABINE] | > 30 | > 30 | > 30 | > 30 | 0.17 | > 10 | > 30 | > 30 | > 10 | > 30 | > 10 | – | > 30 | > 30 |
